Measured values: ChEMBL document CHEMBL1143815, “Spread of extended-spectrum beta-lactamase CTX-M-producing escherichia coli clinical isolates in community and nosocomial environments in Portugal” (2007)
≈ marks a conversion by molar mass, not a printed value.

How the values were obtained:
Assay type in all cases: functional
Escherichia coli [1] = assay: Antibacterial activity against Escherichia coli DH5 alpha-URA5905 isolates expressing CTX-M-15 and TEM-1B enzymes by agar dilution method
Escherichia coli [2] = assay: Antibacterial activity against Escherichia coli DH5 alpha-URA5776 isolates expressing CTX-M-14 enzyme by agar dilution method
Escherichia coli [3] = assay: Antibacterial activity against Escherichia coli INSRA5905 isolates expressing CTX-M-15 and TEM-1B enzymes by agar dilution method
Escherichia coli [4] = assay: Antibacterial activity against Escherichia coli DH5 alpha isolates by agar dilution method
Escherichia coli [5] = assay: Antibacterial activity against Escherichia coli INSRA5776 isolates expressing CTX-M-14 and TEM-1B enzymes by agar dilution method
Escherichia coli [6] = assay: Antibacterial activity against Escherichia coli DH5 alpha-URA5924 isolates expressing CTX-M-32 by agar dilution method
Escherichia coli [7] = assay: Antibacterial activity against Escherichia coli INSRA5924 isolates expressing CTX-M-32 and TEM-1B enzymes by agar dilution method
Escherichia coli [8] = assay: Antibacterial activity against CTX-M group 9 enzyme producing Escherichia coli isolates by broth microdilution method
Escherichia coli [9] = assay: Antibacterial activity against CTX-M group 1 enzyme producing Escherichia coli isolates by broth microdilution method
Escherichia coli [10] = assay: Antibacterial activity against CTX-M group 1 enzyme producing Escherichia coli isolates assessed as percent nonsusceptible isolates by broth microdilution method
Escherichia coli [11] = assay: Antibacterial activity against CTX-M group 9 enzyme producing Escherichia coli isolates assessed as percent nonsusceptible isolates by broth microdilution method
Escherichia coli [12] = assay: Antibacterial activity against CTX-M group 1 enzyme producing Escherichia coli isolates assessed as percent resistant isolates by broth microdilution method
Escherichia coli [13] = assay: Antibacterial activity against CTX-M group 9 enzyme producing Escherichia coli isolates assessed as percent resistant isolates by broth microdilution method

SMILES | MIC (Escherichia coli [1]) [µg/mL] | MIC (Escherichia coli [2]) [µg/mL] | MIC (Escherichia coli [3]) [µg/mL] | MIC (Escherichia coli [4]) [µg/mL] | MIC (Escherichia coli [5]) [µg/mL] | MIC (Escherichia coli [6]) [µg/mL] | MIC (Escherichia coli [7]) [µg/mL] | MIC50 (Escherichia coli [8]) [µg/mL] | MIC90 (Escherichia coli [8]) [µg/mL] | MIC50 (Escherichia coli [9]) [µg/mL] | MIC90 (Escherichia coli [9]) [µg/mL] | Activity (Escherichia coli [10]) [%] | Activity (Escherichia coli [11]) [%] | Activity (Escherichia coli [12]) [%] | Activity (Escherichia coli [13]) [%]
CC1(C)S[C@@H]2[C@H](NC(=O)[C@H](N)c3ccc(O)cc3)C(=O)N2[C@H]1C(=O)O [AMOXICILLIN] | > 4100 | > 4100 | > 4100 | 8 (≈ 21.9 µM) | > 4100 | > 4100 | > 4100 | – | – | – | – | – | – | – | –
CC1COc2c(N3CCN(C)CC3)c(F)cc3c(=O)c(C(=O)O)cn1c23 (configuration not stated) [OFLOXACIN] | – | – | – | – | – | – | – | ≤ 0.5 | > 4 | > 4 | > 4 | 98 | 33 | – | –
CC(C)(O/N=C(\C(=O)N[C@@H]1C(=O)N2C(C(=O)[O-])=C(C[n+]3ccccc3)CS[C@H]12)c1csc(N)n1)C(=O)O [CEFTAZIDIME] | 64 (≈ 117 µM) | 1 (≈ 1.83 µM) | 128 (≈ 234 µM) | 0.25 (≈ 0.457 µM) | 2 (≈ 3.66 µM) | 16 (≈ 29.3 µM) | 16 (≈ 29.3 µM) | 2 (≈ 3.66 µM) | > 16 | > 16 | > 16 | 99 | 11 | 98 | 11
CC1(C)S[C@@H]2[C@H](/N=C\N3CCCCCC3)C(=O)N2[C@H]1C(=O)O | 2 (≈ 6.15 µM) | 0.5 (≈ 1.54 µM) | 2 (≈ 6.15 µM) | 0.125 (≈ 0.384 µM) | 1 (≈ 3.07 µM) | 0.5 (≈ 1.54 µM) | 2 (≈ 6.15 µM) | – | – | – | – | – | – | – | –
C[C@@H](O)[C@H]1C(=O)N2C(C(=O)O)=C(SCCNC=N)C[C@H]12 [IMIPENEM ANHYDROUS] | – | 0.5 (≈ 1.67 µM) | 0.25 (≈ 0.835 µM) | – | ≤ 0.06 | 0.125 (≈ 0.418 µM) | 0.125 (≈ 0.418 µM) | ≤ 0.5 | ≤ 0.5 | ≤ 0.5 | ≤ 0.5 | 0 | 0 | – | –
C[C@@H](O)[C@H]1C(=O)N2C(C(=O)O)=C(S[C@@H]3CN[C@H](C(=O)N(C)C)C3)[C@H](C)[C@H]12 [MEROPENEM] | – | – | – | – | – | – | – | ≤ 1 | ≤ 1 | ≤ 1 | ≤ 1 | 0 | 0 | – | –
CO/N=C(\C(=O)N[C@@H]1C(=O)N2C(C(=O)O)=C(COC(C)=O)CS[C@H]12)c1csc(N)n1 (stereo in doubt) [CEFOTAXIME] | 512 (≈ 1120 µM) | 32 (≈ 70.3 µM) | 512 (≈ 1120 µM) | 0.06 (≈ 0.132 µM) | 32 (≈ 70.3 µM) | 128 (≈ 281 µM) | 256 (≈ 562 µM) | > 32 | > 32 | > 32 | > 32 | 100 | 100 | 99 | –
O=C(O)c1cn(C2CC2)c2cc(N3CCNCC3)c(F)cc2c1=O [CIPROFLOXACIN] | ≤ 0.125 | ≤ 0.125 | 1020 (≈ 3090 µM) | ≤ 0.125 | 256 (≈ 773 µM) | ≤ 0.125 | – | ≤ 0.5 | > 2 | > 2 | > 2 | 98 | 33 | – | –
CC1(C)S[C@@H]2[C@H](NC(=O)C(C(=O)O)c3ccsc3)C(=O)N2[C@H]1C(=O)O (single isomer, unassigned) [TICARCILLIN] | > 4100 | > 4100 | > 4100 | 4 (≈ 10.4 µM) | > 4100 | > 4100 | > 4100 | > 64 | > 64 | > 64 | > 64 | 100 | 100 | – | –
CCN1CCN(C(=O)N[C@@H](C(=O)N[C@@H]2C(=O)N3[C@@H]2SC(C)(C)[C@@H]3C(=O)O)c2ccccc2)C(=O)C1=O [PIPERACILLIN] | 512 (≈ 989 µM) | 256 (≈ 495 µM) | > 512 | 2 (≈ 3.86 µM) | 256 (≈ 495 µM) | 512 (≈ 989 µM) | > 512 | > 64 | > 64 | > 64 | > 64 | 100 | 100 | – | –
CO/N=C(\C(=O)N[C@@H]1C(=O)N2C(C(=O)O)=C(COC(N)=O)CS[C@H]12)c1ccco1 [CEFUROXIME] | > 256 | > 256 | > 256 | 4 (≈ 9.43 µM) | > 256 | > 256 | > 256 | > 16 | > 16 | > 16 | > 16 | 100 | 100 | – | –
CO/N=C(\C(=O)N[C@@H]1C(=O)N2C(C(=O)O)=C(CSc3nc(=O)c(O)nn3C)CS[C@H]12)c1csc(N)n1 (stereo in doubt) [CEFTRIAXONE] | 256 (≈ 462 µM) | 32 (≈ 57.7 µM) | > 512 | 0.03 (≈ 0.0541 µM) | 32 (≈ 57.7 µM) | 64 (≈ 115 µM) | 256 (≈ 462 µM) | > 32 | > 32 | > 32 | > 32 | 100 | 100 | – | –
CO[C@@]1(NC(=O)Cc2cccs2)C(=O)N2C(C(=O)O)=C(COC(N)=O)CS[C@@H]21 [CEFOXITIN] | 4 (≈ 9.36 µM) | 4 (≈ 9.36 µM) | 16 (≈ 37.4 µM) | 4 (≈ 9.36 µM) | 32 (≈ 74.9 µM) | 8 (≈ 18.7 µM) | 16 (≈ 37.4 µM) | ≤ 4 | > 16 | ≤ 4 | 8 (≈ 18.7 µM) | 5 | 11 | 1 | 0
COc1cc(Cc2cnc(N)nc2N)cc(OC)c1OC [TRIMETHOPRIM] | ≤ 0.125 | > 64 | ≤ 0.125 | ≤ 0.125 | 64 (≈ 220 µM) | ≤ 0.125 | 0.25 (≈ 0.861 µM) | – | – | – | – | – | – | – | –
Cc1nnc(SCC2=C(C(=O)O)N3C(=O)[C@@H](NC(=O)Cn4cnnn4)[C@H]3SC2)s1 [CEFAZOLIN] | – | – | – | – | – | – | – | > 16 | > 16 | > 16 | > 16 | 100 | 100 | – | –
C[C@H]1[C@H](NC(=O)/C(=N\OC(C)(C)C(=O)O)c2csc(N)n2)C(=O)N1S(=O)(=O)O [AZTREONAM] | 64 (≈ 147 µM) | 8 (≈ 18.4 µM) | 128 (≈ 294 µM) | – | 8 (≈ 18.4 µM) | 64 (≈ 147 µM) | 64 (≈ 147 µM) | 8 (≈ 18.4 µM) | > 16 | > 16 | > 16 | 100 | 22 | 100 | 11
CC(=O)OCC1=C(C(=O)O)N2C(=O)[C@@H](NC(=O)Cc3cccs3)[C@H]2SC1 [CEPHALOTHIN] | > 1020 | 1020 (≈ 2580 µM) | > 1020 | 8 (≈ 20.2 µM) | > 1020 | > 1020 | > 1020 | > 16 | > 16 | > 16 | > 16 | 100 | 100 | – | –
CCn1cc(C(=O)O)c(=O)c2cc(F)c(N3CCNCC3)cc21 [NORFLOXACIN] | – | – | – | – | – | – | – | ≤ 2 | > 8 | > 8 | > 8 | 98 | 33 | 98 | 33
CC1(C)S[C@@H]2[C@H](NC(=O)[C@H](N)c3ccccc3)C(=O)N2[C@H]1C(=O)O [AMPICILLIN] | – | – | – | – | – | – | – | > 16 | > 16 | > 16 | > 16 | 100 | 100 | – | –
NC[C@H]1O[C@H](O[C@H]2[C@H](O)[C@@H](O[C@H]3O[C@H](CO)[C@@H](O)[C@H](N)[C@H]3O)[C@H](N)C[C@@H]2N)[C@H](N)C[C@@H]1O [TOBRAMYCIN] | – | – | – | – | – | – | – | ≤ 2 | > 8 | > 8 | > 8 | 95 | 22 | 94 | –
NCC[C@H](O)C(=O)N[C@@H]1C[C@H](N)[C@@H](O[C@H]2O[C@H](CN)[C@@H](O)[C@H](O)[C@H]2O)[C@H](O)[C@H]1O[C@H]1O[C@H](CO)[C@@H](O)[C@H](N)[C@H]1O [AMIKACIN] | – | – | – | – | – | – | – | ≤ 8 | 16 (≈ 27.3 µM) | ≤ 8 | 16 (≈ 27.3 µM) | 7 | 0 | 4 | –
CO/N=C(\C(=O)N[C@@H]1C(=O)N2C(C(=O)[O-])=C(C[N+]3(C)CCCC3)CS[C@H]12)c1csc(N)n1 | 8 (≈ 16.6 µM) | 2 (≈ 4.16 µM) | – | 0.03 (≈ 0.0624 µM) | 8 (≈ 16.6 µM) | 4 (≈ 8.32 µM) | 16 (≈ 33.3 µM) | > 16 | > 16 | > 16 | > 16 | – | 100 | – | 78
CCN1CCN(C(=O)N[C@@H](C(=O)N[C@@H]2C(=O)N3C(C(=O)O)=C(CSc4nnnn4C)CS[C@H]23)c2ccc(O)cc2)C(=O)C1=O [CEFOPERAZONE] | 256 (≈ 396 µM) | 16 (≈ 24.8 µM) | > 512 | ≤ 0.25 | 256 (≈ 396 µM) | 64 (≈ 99.1 µM) | 256 (≈ 396 µM) | – | – | – | – | – | – | – | –
